Experimental data reported in publication PMC9572452, “Inhibition of α-Glucosidase and Pancreatic Lipase Properties of Mitragyna speciosa (Korth.) Havil. (Kratom) Leaves” (Nutrients, 2022).
“And” between values parts separate entries of the source, which are not always exact repeats. Equal values may be shown once. “Also recorded” adds a separate entry of the source.

Columns and labels:
μ-opioid receptors = system: μ-opioid receptors; parameters: method as in PMID 27192616; settings: cited from earlier work
α-glucosidase [1] = target: T1, α-glucosidase (Saccharomyces cerevisiae, UniProt P53341); experiment: α-glucosidase inhibition and kinetics, pNPG substrate; type: biochemical; settings: Lineweaver–Burk plots
Experimental: The assay was performed as described previously with some modifications. The kinetic parameters (Michaelis–Menten constant; Km and maximum velocity; Vmax) of α-glucosidase were determined by using p-nitrophenol-α-D-glucopyranoside (pNPG) as a substrate. Briefly, 0.1 unit of α-glucosidase (Sigma-Aldrich, St Louis, MO, USA) were incubated at 37 °C with 100 µL of total reaction. After 10 min, the reactions were started by adding 50 µL pNPG (Sigma-Aldrich, St Louis, MO, USA, lot number 3698310) ranging from 0 to 15 mM, and the p-nitrophenol product was measured at 405 nm using a microplate reader (Multiskan SkyHigh, Thermo Scientific, Göteborg, Sweden). The substrate concentration rates were plotted against pNPG concentrations and fitted to the Michaelis–Menten equation.
The IC50 was determined by comparing the rate of each test inhibitor concentration to that of the vehicle control (ethanol), and the IC50 was calculated by plotting the remaining activity of each inhibitor concentration to the log test inhibitor concentration. […] After co-incubation with each inhibitor for 5 min at 37 °C, the reactions were initiated by adding the p-NPG substrate (0–15 mM). The inhibition constant (Ki) values were determined from Lineweaver–Burk Plots.

pancreatic lipase = target: T2, pancreatic lipase (Sus scrofa, UniProt P00591); experiment: pancreatic lipase inhibition and kinetics, 4MUO substrate; type: biochemical; settings: for Pancreatic Lipase mode of inhibition: Lineweaver–Burk plots
T2 construct: purchased Sigma-Aldrich
T2 sequence (P00591 1-450): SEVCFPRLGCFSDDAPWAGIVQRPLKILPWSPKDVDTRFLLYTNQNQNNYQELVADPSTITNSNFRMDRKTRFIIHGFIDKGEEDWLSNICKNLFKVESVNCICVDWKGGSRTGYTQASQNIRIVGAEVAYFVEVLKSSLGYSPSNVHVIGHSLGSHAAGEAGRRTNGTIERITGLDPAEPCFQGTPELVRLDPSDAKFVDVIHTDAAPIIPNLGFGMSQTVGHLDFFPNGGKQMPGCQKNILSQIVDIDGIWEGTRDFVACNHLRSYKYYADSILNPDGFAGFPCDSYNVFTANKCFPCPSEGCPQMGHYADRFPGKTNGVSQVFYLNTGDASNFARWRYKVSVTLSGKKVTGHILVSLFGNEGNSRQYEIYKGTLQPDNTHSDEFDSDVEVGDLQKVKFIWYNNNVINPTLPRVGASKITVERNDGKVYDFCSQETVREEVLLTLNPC
Experimental: The kinetic parameters (Km and Vmax) of pancreatic lipase were determined using 4-methylumbelliferyl oleate (4MUO) as the substrate (Sigma-Aldrich, St Louis, MO, USA, Lot number BCCF8781). Briefly, 0.5 units of lipase (Sigma-Aldrich, St Louis, MO, USA, Lot number SLCG8579) were incubated in 96-well plates with a total volume of 100 µL (15 mM Tris-HCl buffer, pH 8.0) at 37 °C for 10 min. The reactions were initiated by adding 50 µL of 4MUO ranging from 0 to 5 mM. […] The rates at which substrate concentrations were plotted against 4MUO concentrations and fitted to the Michaelis–Menten equation. […] After 10 min, the reactions were started by adding 0.35 mM 4MUO. The reaction rates were monitored by measuring the release of 4MU from 4MUO. […] The remaining activity of lipase was determined by comparing the rate of each test inhibitor concentration to the vehicle control (ethanol), and IC50 was calculated by plotting the remaining activity of each inhibitor concentration to the log test inhibitor concentration.

α-glucosidase [2] = target: T1, α-glucosidase; experiment: combination of kratom extracts or mitragynine with acarbose on α-glucosidase; type: biochemical
Experimental: After 10 min, the residual reactions were started by the addition of 50 µL of 0.3 mM pNPG. The reactions were left to proceed for 10 min. The absorption at 405 nm was then measured using a microplate reader, and IC50 values were calculated by GraphPad Prism version 9.3.1.

lipase = system: lipase; parameters: method as in PMID 29292744; settings: therapeutic oral dose of 120 mg three times per day; cited from earlier work

T1 sequence (P53341 whole entry): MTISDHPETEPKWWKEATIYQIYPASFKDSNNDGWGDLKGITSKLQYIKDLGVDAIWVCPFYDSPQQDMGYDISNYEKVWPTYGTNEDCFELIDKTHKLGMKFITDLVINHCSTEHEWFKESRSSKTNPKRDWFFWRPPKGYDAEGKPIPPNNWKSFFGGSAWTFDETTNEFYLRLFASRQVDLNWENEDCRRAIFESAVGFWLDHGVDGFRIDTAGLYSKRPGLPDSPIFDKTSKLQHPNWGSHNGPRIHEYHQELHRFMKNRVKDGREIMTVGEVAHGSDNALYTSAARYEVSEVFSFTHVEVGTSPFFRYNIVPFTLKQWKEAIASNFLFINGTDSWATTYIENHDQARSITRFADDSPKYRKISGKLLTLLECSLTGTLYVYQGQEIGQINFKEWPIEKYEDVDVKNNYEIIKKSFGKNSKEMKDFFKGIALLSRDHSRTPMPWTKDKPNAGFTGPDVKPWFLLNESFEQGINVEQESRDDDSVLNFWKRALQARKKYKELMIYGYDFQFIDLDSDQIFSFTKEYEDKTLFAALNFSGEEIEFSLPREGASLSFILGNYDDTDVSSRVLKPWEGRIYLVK

## CC[C@@H]1CN2CC[C@@]3(O)C(=Nc4cccc(OC)c43)[C@@H]2C[C@@H]1/C(=C\OC)C(=O)OC [7-hydroxymitragynine]
μ-opioid receptors
  analgesic activity, fold higher than that of mitragynine: 16 fold

## C[C@H]1O[C@H](O[C@H]2[C@H](O)[C@@H](O)[C@@H](O[C@H]3[C@H](O)[C@@H](O)C(O)O[C@@H]3CO)O[C@@H]2CO)[C@H](O)[C@@H](O)[C@@H]1N[C@H]1C=C(CO)[C@@H](O)[C@H](O)[C@H]1O (stereo partly shown) [Acarbose, reference compound]
α-glucosidase [1]
  α-Glucosidase mode of inhibition: mixed-type
α-glucosidase [1]; listed as acarbose
  α-Glucosidase mode of inhibition: mixed-type inhibition mode

## CC[C@@H]1CN2CCc3c([nH]c4cccc(OC)c34)[C@@H]2C[C@@H]1/C(=C\OC)C(=O)OC [Mitragynine]
Pancreatic lipase
  pancreatic lipase IC50, fold higher than that of orlistat: 30 fold
  Pancreatic Lipase mode of inhibition: competitive
Pancreatic lipase; 0.35 mM 4MUO, 37 °C, mean ± SD, n = 3
  IC50: 24.9 µM and 24.7 µM
Pancreatic lipase; listed as mitragynine
  Pancreatic Lipase mode of inhibition: competitive inhibitors; also recorded: competitive mode
Pancreatic lipase; from Lineweaver–Burk plots, 4MUO substrate
  Ki: 14.9 µM
α-glucosidase [1]
  α-Glucosidase mode of inhibition: noncompetitive
α-glucosidase [1]; listed as mitragynine
  α-Glucosidase mode of inhibition: noncompetitive inhibitor; also recorded: noncompetitive mode
α-glucosidase [2]; mitragynine 100 µM with acarbose
  potency of combination with acarbose compared with kratom extract combinations: less potency than that of kratom extracts
α-glucosidase [2]; mitragynine 200 and 300 µM with acarbose
  IC50 of combination with acarbose compared with kratom extract combinations: decreased IC50 values compared with that of mixed kratom extracts
α-glucosidase [2]; mitragynine combined with acarbose
  interaction with acarbose in α-glucosidase inhibition: synergistic interaction; also recorded: synergistic effect

## CCCCCCCCCCC[C@@H](C[C@@H]1OC(=O)[C@H]1CCCCCC)OC(=O)[C@H](CC(C)C)NC=O [Orlistat, reference compound]
Pancreatic lipase
  Pancreatic Lipase mode of inhibition: competitive
Pancreatic lipase; listed as orlistat
  Pancreatic Lipase mode of inhibition: competitive inhibitors; also recorded: competitive mode
lipase
  reduction of dietary fat absorption: one-third
